Reference: ChEMBL document CHEMBL4842311, “Novel Mechanistic Observations and NES-Binding Groove Features Revealed by the CRM1 Inhibitors Plumbagin and Oridonin” (J Nat Prod, 2021)
The source made the active and inactive calls. The calls are words filed in the database; no cut-off is given here.

Legend:
[1] = target: Exportin-1 (Homo sapiens) (UniProt O14980); test: Inhibition of human wild type CRM1 assessed as C528 conjugation at 20 uM incubated for 2 hrs before binding by coomassie blue staining based pull-down assay
[2] = tested on: Exportin-1 (Homo sapiens), O14980 [C528S]; test: Inhibition of human CRM1-C528S mutant assessed as C528 conjugation at 20 uM incubated for 2 hrs before binding by coomassie blue staining based pull-down assay
Saccharomyces cerevisiae [3] = test: Inhibition of Yeast GST-tagged/TEV cleavage site fused CRM1 C152/C539/D1034A triple mutant expressed in Escherichia coli BL21 (DE3) assessed as decrease in NES binding at 60 uM measured after 2 hrs by coomassie blue staining based pull-down assay
[4] = target: Exportin-1 (Homo sapiens) (UniProt O14980); test: Inhibition of human CRM1-WT assessed as C528 conjugation at 1 uM incubated for 2 hrs before binding by coomassie blue staining based pull-down assay
Saccharomyces cerevisiae [5] = test: Inhibition of Yeast GST-tagged/TEV cleavage site fused CRM1 C152/C539 double mutant expressed in Escherichia coli BL21 (DE3) assessed as C1022 conjugation mediated NES inhibition at 60 uM measured after 2 hrs by coomassie blue staining based pull-down assay

Exportin-1 (Homo sapiens), O14980 [C528S], sequence (O14980 whole entry C528S, the tested form may be a part): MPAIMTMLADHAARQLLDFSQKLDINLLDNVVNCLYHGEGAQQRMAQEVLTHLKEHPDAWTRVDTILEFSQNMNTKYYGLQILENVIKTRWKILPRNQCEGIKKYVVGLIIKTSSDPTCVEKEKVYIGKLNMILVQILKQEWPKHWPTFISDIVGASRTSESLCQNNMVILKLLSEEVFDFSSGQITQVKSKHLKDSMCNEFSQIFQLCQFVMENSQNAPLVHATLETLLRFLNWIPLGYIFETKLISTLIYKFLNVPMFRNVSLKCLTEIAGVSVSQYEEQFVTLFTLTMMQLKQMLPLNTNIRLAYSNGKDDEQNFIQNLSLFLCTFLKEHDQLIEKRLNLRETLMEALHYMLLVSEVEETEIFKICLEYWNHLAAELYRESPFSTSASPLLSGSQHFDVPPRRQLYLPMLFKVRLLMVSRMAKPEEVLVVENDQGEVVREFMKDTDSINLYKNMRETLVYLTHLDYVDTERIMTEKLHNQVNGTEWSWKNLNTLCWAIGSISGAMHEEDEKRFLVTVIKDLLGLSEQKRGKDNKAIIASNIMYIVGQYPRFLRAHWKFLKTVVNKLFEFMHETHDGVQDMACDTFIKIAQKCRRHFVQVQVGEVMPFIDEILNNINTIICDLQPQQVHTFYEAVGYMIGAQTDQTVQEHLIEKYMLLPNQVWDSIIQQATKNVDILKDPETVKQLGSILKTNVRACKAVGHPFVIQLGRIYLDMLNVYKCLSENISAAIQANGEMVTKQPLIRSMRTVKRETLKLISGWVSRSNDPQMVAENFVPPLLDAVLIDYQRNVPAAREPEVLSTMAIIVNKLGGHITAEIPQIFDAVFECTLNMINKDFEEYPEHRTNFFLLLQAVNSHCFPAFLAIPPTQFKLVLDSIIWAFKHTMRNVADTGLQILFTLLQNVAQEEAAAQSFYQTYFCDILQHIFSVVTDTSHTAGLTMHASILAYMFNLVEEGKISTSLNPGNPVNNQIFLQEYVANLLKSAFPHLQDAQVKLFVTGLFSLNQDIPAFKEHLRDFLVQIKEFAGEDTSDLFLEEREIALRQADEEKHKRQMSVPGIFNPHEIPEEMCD
Exportin-1 (Homo sapiens), sequence (O14980 whole entry, the tested form may be a part): as the sequence (O14980 whole entry C528S, the tested form may be a part) above, with S528C counted along it

inhibition [1] | inhibition [2] | inhibition [4] | inhibition (Saccharomyces cerevisiae [5]) | SMILES | inhibition (Saccharomyces cerevisiae [3])
Active | Active | – | – | O=C(/C=C\n1cnc(-c2cc(C(F)(F)F)cc(C(F)(F)F)c2)n1)NNc1cnccn1 | –
Active | Active | inactive | Active | C=C1C(=O)[C@]23[C@H](O)[C@H]1CC[C@H]2[C@@]12CO[C@]3(O)[C@@H](O)[C@@H]1C(C)(C)CC[C@@H]2O | Active

SMILES | inhibition [1] | inhibition [2] | inhibition [4] | inhibition (Saccharomyces cerevisiae [5]) | inhibition (Saccharomyces cerevisiae [3])
CC1=CC(=O)c2c(O)cccc2C1=O | Active | Active | – | – | Active
